Measurements taken from patent US10543212B2, “Substituted amines for treating cardiac diseases” (Cardurion Pharmaceuticals, LLC, priority 2017, dated 2020).

Target: T1, Full-length, GST-tagged, human CaMKIIδ (Homo sapiens, UniProt Q13557)
T1 construct: Full-Length, Glutathione-S-Transferase(GST)-Tagged, Human CaMKIIδ was purchased from Carna Biosciences; purchased Carna Biosciences 02-111
Experiment: CaMKIIδ binding assay (TR-FRET with BODIPY-labeled probe ligand)
Details: Table 2; CaMKIIδ binding assay, activity given as class A/B/C
Summary of the method: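 TR-FRET probe-displacement binding: 0.5 nM GST-CaMKIIδ with 10 μg/mL calmodulin, 1 mM CaCl2, 0.21 nM Tb-anti-GST Ab and 300 nM BODIPY probe in HEPES pH 7.6 buffer. Eight-point 4-fold dilutions, 1 hr at room temperature. IC50 from logistic fit; 100% inhibition defined by 3 μM parent compound.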

T1 sequence (Q13557 1-478 isoform Q13557-12): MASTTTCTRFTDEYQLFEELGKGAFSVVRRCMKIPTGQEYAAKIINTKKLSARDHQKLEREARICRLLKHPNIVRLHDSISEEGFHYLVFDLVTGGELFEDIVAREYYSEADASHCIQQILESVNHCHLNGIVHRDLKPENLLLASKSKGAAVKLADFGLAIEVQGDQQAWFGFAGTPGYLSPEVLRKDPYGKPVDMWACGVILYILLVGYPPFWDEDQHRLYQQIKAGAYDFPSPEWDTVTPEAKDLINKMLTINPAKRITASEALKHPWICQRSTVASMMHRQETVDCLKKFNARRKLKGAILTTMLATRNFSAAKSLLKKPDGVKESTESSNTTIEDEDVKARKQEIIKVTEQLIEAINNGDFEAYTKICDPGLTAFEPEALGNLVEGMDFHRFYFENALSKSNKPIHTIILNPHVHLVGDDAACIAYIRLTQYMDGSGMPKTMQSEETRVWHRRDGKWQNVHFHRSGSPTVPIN

| SMILES | IC50 |
| --- | --- |
| C[C@@H](Cn1cnnn1)Oc1cc(-c2cnc(Nc3cn(C4CCC(CC(N)=O)CC4)nc3C(F)(F)F)nc2)ccc1Cl (stereo partly drawn) [Example 852, (S)-2-(4-(4-((5-(3-((1-(1H-tetrazol-1-yl)propan-2-yl)oxy)-4-chlorophenyl)pyrimidin-2-yl)amino)-3-(trifluoromethyl)-1H-pyrazol-1-yl)cyclohexyl)acetamide] | ≥ 100 nM |
| C[C@@H](Cn1cnnn1)Oc1cc(-c2cnc(Nc3cn(CC4(O)CCC4)nc3OCC(F)(F)F)nc2)ccc1Cl [Example 853, (S)-1-((4-((5-(3-((1-(1H-tetrazol-1-yl)propan-2-yl)oxy)-4-chlorophenyl)pyrimidin-2-yl)amino)-3-(2,2,2-trifluoroethoxy)-1H-pyrazol-1-yl)methyl)cyclobutan-1-ol] | < 10 nM |
| C[C@@H](Cn1cnnn1)Oc1cc(-c2cnc(Nc3cn(C4CC5(C4)CN(C4COC4)C5)nc3OCC(F)(F)F)nc2)ccc1Cl [Example 854, (S)-5-(3-((1-(1H-tetrazol-1-yl)propan-2-yl)oxy)-4-chlorophenyl)-N-(1-(2-(oxetan-3-yl)-2-azaspiro[3.3]heptan-6-yl)-3-(2,2,2-trifluoroethoxy)-1H-pyrazol-4-yl)pyrimidin-2-amine] | < 10 nM |
| C[C@@H](Cn1cnnn1)Oc1cc(-c2cnc(Nc3cn(CC4(O)CCC4)nc3C(F)(F)F)nc2)ccc1Cl [Example 855, (S)-1-((4-((5-(3-((1-(1H-tetrazol-1-yl)propan-2-yl)oxy)-4-chlorophenyl)pyrimidin-2-yl)amino)-3-(trifluoromethyl)-1H-pyrazol-1-yl)methyl)cyclobutan-1-ol] | < 10 nM |
| C[C@@H](Cn1cnnn1)Oc1cc(-c2cnc(Nc3cn([C@H]4CC[C@@H](N5CC(O)(C(F)(F)F)C5)CC4)nc3C(F)(F)F)nc2)ccc1Cl [Example 856, 1-(cis-4-(4-((5-(3-(((S)-1-(1H-tetrazol-1-yl)propan-2-yl)oxy)-4-chlorophenyl)pyrimidin-2-yl)amino)-3-(trifluoromethyl)-1H-pyrazol-1-yl)cyclohexyl)-3-(trifluoromethyl)azetidin-3-ol] | 10 to 100 nM |
| C[C@@H](Cn1cnnn1)Oc1cc(-c2cnc(Nc3cn([C@H]4CC[C@H](N5CC(O)(C(F)(F)F)C5)CC4)nc3C(F)(F)F)nc2)ccc1Cl [Example 857, 1-(trans-4-(4-((5-(3-(((S)-1-(1H-tetrazol-1-yl)propan-2-yl)oxy)-4-chlorophenyl)pyrimidin-2-yl)amino)-3-(trifluoromethyl)-1H-pyrazol-1-yl)cyclohexyl)-3-(trifluoromethyl)azetidin-3-ol] | < 10 nM |
| C[C@@H](Cn1cnnn1)Oc1cc(-c2cnc(Nc3cn(CC4(O)CCC4)nc3C(F)(F)F)nc2)ccc1F [Example 858, (S)-1-((4-((5-(3-((1-(1H-tetrazol-1-yl)propan-2-yl)oxy)-4-fluorophenyl)pyrimidin-2-yl)amino)-3-(trifluoromethyl)-1H-pyrazol-1-yl)methyl)cyclobutan-1-ol] | 10 to 100 nM |
| C[C@@H](Cn1cnnn1)Oc1cc(-c2cnc(Nc3cn(C4CC5(C4)CN(CC(C)(C)O)C5)nc3C(F)(F)F)nc2)ccc1Cl [Example 859, (S)-1-(6-(4-((5-(3-((1-(1H-tetrazol-1-yl)propan-2-yl)oxy)-4-chlorophenyl)pyrimidin-2-yl)amino)-3-(trifluoromethyl)-1H-pyrazol-1-yl)-2-azaspiro[3.3]heptan-2-yl)-2-methylpropan-2-ol] | < 10 nM |
| C[C@@H](Cn1cnnn1)Oc1cc(-c2cnc(Nc3cn(CC(C)(C)NC(=O)OC(C)(C)C)nc3C(F)(F)F)nc2)ccc1Cl [Example 860, tert-butyl (S)-(1-(4-((5-(3-((1-(1H-tetrazol-1-yl)propan-2-yl)oxy)-4-chlorophenyl)pyrimidin-2-yl)amino)-3-(trifluoromethyl)-1H-pyrazol-1-yl)-2-methylpropan-2-yl)carbamate] | ≥ 100 nM |
| C[C@@H](Cn1cnnn1)Oc1cc(-c2cnc(Nc3cn(CC(C)(C)N)nc3C(F)(F)F)nc2)ccc1Cl [Example 861, (S)-5-(3-((1-(1H-tetrazol-1-yl)propan-2-yl)oxy)-4-chlorophenyl)-N-(1-(2-amino-2-methylpropyl)-3-(trifluoromethyl)-1H-pyrazol-4-yl)pyrimidin-2-amine] | < 10 nM |
| CC(=O)NC(C)(C)Cn1cc(Nc2ncc(-c3ccc(Cl)c(O[C@@H](C)Cn4cnnn4)c3)cn2)c(C(F)(F)F)n1 [Example 862, (S)-N-(1-(4-((5-(3-((1-(1H-tetrazol-1-yl)propan-2-yl)oxy)-4-chlorophenyl)pyrimidin-2-yl)amino)-3-(trifluoromethyl)-1H-pyrazol-1-yl)-2-methylpropan-2-yl)acetamide] | 10 to 100 nM |
| C[C@@H](Cn1cnnn1)Oc1cc(-c2cnc(Nc3cn([C@H]4CC[C@H](N5CC(F)C5)CC4)nc3OC3COC3)nc2)ccc1Cl [Example 863, 5-(3-(((S)-1-(1H-tetrazol-1-yl)propan-2-yl)oxy)-4-chlorophenyl)-N-(1-(trans-4-(3-fluoroazetidin-1-yl)cyclohexyl)-3-(oxetan-3-yloxy)-1H-pyrazol-4-yl)pyrimidin-2-amine] | < 10 nM |
| C[C@@H](Cn1cnnn1)Oc1cc(-c2cnc(Nc3cn([C@H]4CC[C@H](N5CCC(F)(F)C5)CC4)nc3OC3COC3)nc2)ccc1Cl [Example 864, 5-(3-(((S)-1-(1H-tetrazol-1-yl)propan-2-yl)oxy)-4-chlorophenyl)-N-(1-(trans-4-(3,3-difluoropyrrolidin-1-yl)cyclohexyl)-3-(oxetan-3-yloxy)-1H-pyrazol-4-yl)pyrimidin-2-amine] | < 10 nM |
| CCn1ncc(Nc2ncc(-c3ccc(Cl)c(O[C@@H](C)Cn4cnnn4)c3)cn2)c1C(=O)N1CCOCC1 [Example 865, (S)-(4-((5-(3-((1-(1H-tetrazol-1-yl)propan-2-yl)oxy)-4-chlorophenyl)pyrimidin-2-yl)amino)-1-ethyl-1H-pyrazol-5-yl)(morpholino)methanone] | ≥ 100 nM |
| CCn1cc(Nc2ncc(-c3ccc(Cl)c(O[C@@H](C)Cn4cnnn4)c3)cn2)c(C(=O)N2CCOCC2)n1 [Example 866, (S)-(4-((5-(3-((1-(1H-tetrazol-1-yl)propan-2-yl)oxy)-4-chlorophenyl)pyrimidin-2-yl)amino)-1-ethyl-1H-pyrazol-3-yl)(morpholino)methanone] | 10 to 100 nM |
| COc1ccc(-n2cc(Nc3ncc(-c4ccc(Cl)c(O[C@@H](C)Cn5cnnn5)c4)cn3)c(C(F)(F)F)n2)cn1 [Example 867, (S)-5-(3-((1-(1H-tetrazol-1-yl)propan-2-yl)oxy)-4-chlorophenyl)-N-(1-(6-methoxypyridin-3-yl)-3-(trifluoromethyl)-1H-pyrazol-4-yl)pyrimidin-2-amine] | ≥ 100 nM |
| C[C@@H](Cn1cnnn1)Oc1cc(-c2cnc(Nc3cn(-c4ccc(=O)[nH]c4)nc3C(F)(F)F)nc2)ccc1Cl [Example 868, (S)-5-(4-((5-(3-((1-(1H-tetrazol-1-yl)propan-2-yl)oxy)-4-chlorophenyl)pyrimidin-2-yl)amino)-3-(trifluoromethyl)-1H-pyrazol-1-yl)pyridin-2(1H)-one] | 10 to 100 nM |
| C[C@@H](Cn1cnnn1)Oc1cc(-c2cnc(Nc3cn([C@H]4CC[C@H](N5CCOCC5)CC4)nc3OC[C@@H]3CC3(F)F)nc2)ccc1Cl [Example 869] | < 10 nM |
| C[C@@H](Cn1cnnn1)Oc1cc(-c2cnc(Nc3cn([C@H]4CC[C@@H](N5CCOCC5)CC4)nc3OC[C@@H]3CC3(F)F)nc2)ccc1Cl [Example 870, 5-(3-(((S)-1-(1H-tetrazol-1-yl)propan-2-yl)oxy)-4-chlorophenyl)-N-(3-(((S)-2,2-difluorocyclopropyl)methoxy)-1-(cis-4-morpholinocyclohexyl)-1H-pyrazol-4-yl)pyrimidin-2-amine] | < 10 nM |
| C[C@@H](Cn1cnnn1)Oc1cc(-c2cnc(Nc3cn([C@H]4CC[C@H](N5CCC[C@H]5CO)CC4)nc3OC[C@@H]3CC3(F)F)nc2)ccc1Cl [Example 871, ((S)-1-(trans-4-(4-((5-(3-(((S)-1-(1H-tetrazol-1-yl)propan-2-yl)oxy)-4-chlorophenyl)pyrimidin-2-yl)amino)-3-(((S)-2,2-difluorocyclopropyl)methoxy)-1H-pyrazol-1-yl)cyclohexyl)pyrrolidin-2-yl)methanol] | < 10 nM |
| CCOC(=O)c1c(Nc2ncc(-c3ccc(Cl)c(O[C@@H](C)Cn4cnnn4)c3)cn2)cnn1CC [Example 872, ethyl (S)-4-((5-(3-((1-(1H-tetrazol-1-yl)propan-2-yl)oxy)-4-chlorophenyl)pyrimidin-2-yl)amino)-1-ethyl-1H-pyrazole-5-carboxylate] | < 10 nM |
| CCOC(=O)c1nn(CC)cc1Nc1ncc(-c2ccc(Cl)c(O[C@@H](C)Cn3cnnn3)c2)cn1 [Example 873, ethyl (S)-4-((5-(3-((1-(1H-tetrazol-1-yl)propan-2-yl)oxy)-4-chlorophenyl)pyrimidin-2-yl)amino)-1-ethyl-1H-pyrazole-3-carboxylate] | < 10 nM |
| C[C@@H](Cn1cnnn1)Oc1cc(-c2cnc(Nc3cn(CC4(O)CCN(C(=O)OC(C)(C)C)CC4)nc3C(F)(F)F)nc2)ccc1Cl [Example 874, tert-butyl (S)-4-((4-((5-(3-((1-(1H-tetrazol-1-yl)propan-2-yl)oxy)-4-chlorophenyl)pyrimidin-2-yl)amino)-3-(trifluoromethyl)-1H-pyrazol-1-yl)methyl)-4-hydroxypiperidine-1-carboxylate] | 10 to 100 nM |
| CCn1ncc(Nc2ncc(-c3ccc(Cl)c(O[C@@H](C)Cn4cnnn4)c3)cn2)c1C(=O)O [Example 875, (S)-4-((5-(3-((1-(1H-tetrazol-1-yl)propan-2-yl)oxy)-4-chlorophenyl)pyrimidin-2-yl)amino)-1-ethyl-1H-pyrazole-5-carboxylic acid] | 10 to 100 nM |
| CCn1cc(Nc2ncc(-c3ccc(Cl)c(O[C@@H](C)Cn4cnnn4)c3)cn2)c(C(=O)O)n1 [Example 876, (S)-4-((5-(3-((1-(1H-tetrazol-1-yl)propan-2-yl)oxy)-4-chlorophenyl)pyrimidin-2-yl)amino)-1-ethyl-1H-pyrazole-3-carboxylic acid] | 10 to 100 nM |
